From PMC9406419, “OATD-02 Validates the Benefits of Pharmacological Inhibition of Arginase 1 and 2 in Cancer” (Cancers, 2022) come the findings set out here.

In general, IC50 refers to the point on the concentration scale where inhibition reaches its midpoint.

One test concerns K562 cells. Nature of the test: Long-term culture of OATD-02-treated K562 cells (viable cell count, propidium iodide). It is filed as cell-based, human. Particulars: different concentrations, 14 days, medium not replaced. Here is the method:
CT26.WT (CRL-2638, CT26, mouse colon carcinoma) and K562 (CCL-243, human CML) cell lines were purchased from the ATCC®. Adherent CT26 and non-adherent K562 cells were maintained in the RPMI-1640 medium (Gibco, Life Technologies, Carlsbad, CA, USA) supplemented with 10% foetal bovine serum (FBS, #10270106, ThermoFisher/Gibco™) and 100 U/mL penicillin G and 100 µg/mL streptomycin (Antibiotic-Antimycotic, #15240062, Gibco®) at 37 °C in a humidified 5% CO2 atmosphere. Full-grown monolayers of CT26 cells were trypsinized for 15 min (0.25% Gibco® Trypsin-EDTA), harvested, and passaged several times for expansion. Both cell lines were confirmed at the last used passage to be mycoplasma-free (Mycoalert Detection Kit, Lonza, Basel, Switzerland). The Renca (murine renal adenocarcinoma) cell line was maintained for the in vivo study conducted at Crown Biosciences (Beijing, China). A monolayer culture was grown in DMEM medium supplemented with 10% FBS at 37 °C and 5% CO2. The cells were harvested in exponential growth phase and used for inoculation. […] To assess the antiproliferative effects of OATD-02, the culture medium has not been replaced during this period and the cell density/viability (propidium iodide staining) was determined daily. […]

Another test deals with Renca tumours. The test is described as follows: Syngeneic Renca renal adenocarcinoma model with plasma L-arginine and tumour flow cytometry. It is filed as in vivo, mouse. Here is the method:
CT26 and K562 in vivo experiments were conducted at Molecure SA. All experimental procedures were approved by the 1st Local Ethics Committee in Warsaw (Poland). For the syngeneic CT26 model, 7–8-week old BALB/c females (n = 9–18 per group, BALB/cAnNCrl, Charles River Laboratories) were injected subcutaneously in the right flank with 5 × 10^5 CT26 cells. […] Anti-PD-L1 antibody (InVivoPlus anti-mouse PD-L1, clone 10F.9G2, BioXCell, lot 615416D1) was injected intraperitoneally at 2.5 mg/kg on days: 8, 10, 12, 14 and 16 post tumour cells inoculation. Control groups received vehicle (saline) or isotype antibody (InVivoPlus rat IgG2b, anti-KLH, BioXCell, lot 629816D1). For the xenograft K562 model, 7–8 week-old athymic nude mice (n = 8–11 per group, Crl:NU(NCr)-Foxn1^nu, Charles River Laboratories) or NK cell-deficient Fox Chase SCID Beige mice (n = 10–12 per group, CB17.Cg-Prkdc^scidLyst^bg-J/Crl, Charles River Laboratories) were injected subcutaneously in the right flank with 1 × 10^7 K562 cells. […] Tumour volume measured by a digital calliper (width × length × depth × π/6) was recorded three times per week. Animals were euthanized when tumours were necrotized or volume exceeded 2000 mm^3. Renca in vivo efficacy study was performed at Crown Biosciences Inc. (Taicang, China). All experimental procedures on animals were approved by the Institutional Animal Care and Use Committee (IACUC) and conducted in accordance with the regulations of the Association for Assessment and Accreditation of Laboratory Animal Care (AAALAC). For the syngeneic Renca model, 6–7 week-old BALB/c females (n = 12 per group, Shanghai Lingchang Biotechnology, Shanghai, China) were injected subcutaneously in the right flank with 1 × 10^6 Renca cells. Tumour volumes (length × width^2 × 0.5) were measured twice per week. OATD-02 was dosed twice per day at 75 mg/kg by oral gavage. A dosing holiday was given to individuals with bodyweight loss exceeding 15% of the initial body weight and the treatment was resumed when the bodyweight loss recovered to less than 10%. Due to the cachexic nature of the Renca model, all animals were supplemented with DietGel to help maintain their body weight.
Dissected tumours were dissociated to obtain single-cell suspensions for antibody staining and immune cell assessment. Prior to the antibody staining, dead cells were labelled with the Fixable Viability Due eFluor™ 780 (eBiosciences, San Diego, CA, USA). The following anti-mouse antibodies were used for flow cytometry: anti-CD45-FITC (clone 30-F11, Biolegend, San Diego, CA, USA), anti-CD3-BUV395 (clone 145-2C11, BD), anti-CD4-BV421 (clone GK1.5, Biolegend), anti-CD8-PE-eFluor610 (clone 53-6.7, eBiosciences), anti-Foxp3-PE (clone FJK-16S, eBiosciences), anti-CD11b-PE-Cy7 (clone M1/70, Biolegend), anti-F4/80-BV510 (clone BM8, Biolegend), and anti-Gr1-APC (clone RB6-8C5, Biolegend).
The concentrations of OATD-02, the reference ARGi or L-arginine were determined in plasma samples or tumour homogenates using liquid chromatography coupled with tandem mass spectrometry (LC-MS/MS). Sample preparation was based on protein precipitation using acetonitrile. The resulting supernatants were analysed using hydrophilic interaction liquid chromatography (HILIC) with subsequent MS detection based on optimised MRM transitions. Matrix-matched calibration and quality control samples were prepared for quantification of OATD-02 and the reference ARGi. Due to the endogenous character of L-arginine, a surrogate matrix was used for its detection.
All statistical analyses were performed using GraphPad Prism (ver. 9, GraphPad Software, Inc., San Diego, CA, USA). Data sets with normal distribution were described as means with SEM (standard error of the mean). Otherwise, the median value was shown and the U Mann–Whitney or the Kruskal–Wallis tests were applied for intergroup comparisons. Differences at p-value less than 0.05 were considered statistically significant. […]
For orientation: A flow cytometer gives signals particle by particle.

Another test deals with T1, recombinant human ARG1 (Homo sapiens, UniProt P05089).
T1 construct: made in house; host or cells: E. coli
T1 sequence (P05089 1-322): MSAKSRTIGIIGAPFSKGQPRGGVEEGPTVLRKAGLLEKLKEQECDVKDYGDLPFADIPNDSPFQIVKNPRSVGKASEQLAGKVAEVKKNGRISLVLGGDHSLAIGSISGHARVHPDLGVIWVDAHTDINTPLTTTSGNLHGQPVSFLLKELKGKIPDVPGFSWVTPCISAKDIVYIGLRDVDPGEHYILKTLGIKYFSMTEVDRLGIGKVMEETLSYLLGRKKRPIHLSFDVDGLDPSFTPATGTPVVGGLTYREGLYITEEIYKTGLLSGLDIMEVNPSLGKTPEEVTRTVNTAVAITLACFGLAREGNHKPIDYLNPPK
Nature of the test: Recombinant arginase inhibition assay (colorimetric urea detection), ARG1. It is filed as biochemical. Particulars: recombinant human ARG1, 10 mM L-arginine, 37 °C, 1 h, pH 7.4.

Structures are written as SMILES.

Procedure for recombinant human ARG1: The enzymatic reaction was carried out at 37 °C for 1 h in the assay buffer (100 mM sodium phosphate buffer, 130 mM NaCl, pH 7.4) with the addition of 1 mg/mL BSA in the presence of 200 µM MnCl2 (enzyme cofactor), 10 mM (for ARG1) or 20 mM (for ARG2) of L-arginine hydrochloride (enzyme substrate), and serial dilutions of the test compounds. The inhibition of the arginase activity was determined by colorimetric detection of produced urea, as previously described [29] with minor changes. Briefly, 150 µL of freshly prepared developing reagent (2 mM o-phthaldialdehyde (OPA), 2 mM N-(1-naphthyl)ethylenediamine dihydrochloride (NED), 50 mM boric acid, 1 M sulfuric acid, 0.03% Brij-35) was added to each well, incubated for 20 min at RT, then the absorbance at 515 nm was measured. Normalized values were fitted to a four-parameter equation using GraphPad Prism and IC50 values were determined.

As for `CN(C)C[C@@H]1CC[C@@H](CCB(O)O)C[C@]1(N)C(=O)O` [OATD-02], the “survival of K562 cells in long-term culture” value in the test on K562 cells is given as “dying faster in a dose-dependent manner”. For the same molecule, the “TGI, syngeneic Renca model” value with Renca tumours (75 mg/kg PO BID from day 1, day 22 post-inoculation, not statistically significant) turned out to be 31%. The “levels of Tregs in the tumour microenvironment” value with Renca tumours (Renca tumours, flow cytometry, Foxp3+ within CD4+ T cells, p = 0.0196) is “decreased levels”. Further, in the test with Renca tumours (Renca tumours, flow cytometry, p = 0.0173), the “levels of MDSCs in the tumour microenvironment” value is on record as “decreased levels”. The “CD8+/Treg cell ratio” value in the test on Renca tumours (Renca tumours, flow cytometry, p = 0.0281) was “beneficial increase”. In addition, in the test on Renca tumours (Renca tumours, flow cytometry, p = 0.0284), the “levels of neutrophils in the tumour microenvironment” value was “decreased levels”. In addition, the “fold increase in plasma L-arginine” value with Renca tumours (Renca-bearing mice, 75 mg/kg PO BID, 16 h upon last dose) was 6.6 fold. Further, the IC50 on recombinant human ARG1 was found to be 17 nM.
